Numbers after ± are expanded uncertainties.
Assay: xn = mol fraction of the nth substance listed
Conditions: 101 kPa, Liquid; for viscosity: Concentric cylinders viscometry; for mass density: Vibrating tube method

Compound: O=S1(=O)CCCC1 [sulfolane] + CC(C)O
- viscosity (303.15 K, x1 = 0.075): 1.62 ± 0.01 mPa·s
- viscosity (303.15 K, x1 = 0.164): 1.69 ± 0.02 mPa·s
- viscosity (303.15 K, x1 = 0.25): 1.85 ± 0.02 mPa·s
- viscosity (303.15 K, x1 = 0.353): 2.14 ± 0.02 mPa·s
- viscosity (303.15 K, x1 = 0.437): 2.43 ± 0.02 mPa·s
- viscosity (303.15 K, x1 = 0.536): 2.91 ± 0.03 mPa·s
- viscosity (303.15 K, x1 = 0.656): 3.75 ± 0.03 mPa·s
- viscosity (303.15 K, x1 = 0.768): 4.97 ± 0.04 mPa·s
- viscosity (303.15 K, x1 = 0.88): 6.92 ± 0.06 mPa·s
- viscosity (303.15 K, x1 = 1): 10.4 ± 0.1 mPa·s
- mass density (303.15 K, x1 = 0.075): 823.6 ± 0.7 kg/m3
- mass density (303.15 K, x1 = 0.164): 875.9 ± 0.7 kg/m3
- mass density (303.15 K, x1 = 0.25): 924 ± 0.7 kg/m3
- mass density (303.15 K, x1 = 0.353): 978.7 ± 0.7 kg/m3
- mass density (303.15 K, x1 = 0.437): 1021.3 ± 0.7 kg/m3
- mass density (303.15 K, x1 = 0.536): 1069.3 ± 0.6 kg/m3
- mass density (303.15 K, x1 = 0.656): 1124.3 ± 0.6 kg/m3
- mass density (303.15 K, x1 = 0.768): 1172.1 ± 0.7 kg/m3
- mass density (303.15 K, x1 = 0.88): 1219.3 ± 0.7 kg/m3
- mass density (303.15 K, x1 = 1): 1262.9 ± 0.6 kg/m3
- viscosity (313.15 K, x1 = 0.075): 1.27 ± 0.01 mPa·s
- viscosity (313.15 K, x1 = 0.164): 1.34 ± 0.01 mPa·s
- viscosity (313.15 K, x1 = 0.25): 1.48 ± 0.01 mPa·s
- viscosity (313.15 K, x1 = 0.353): 1.71 ± 0.02 mPa·s
- viscosity (313.15 K, x1 = 0.437): 1.96 ± 0.02 mPa·s
- viscosity (313.15 K, x1 = 0.536): 2.35 ± 0.02 mPa·s
- viscosity (313.15 K, x1 = 0.656): 3.03 ± 0.03 mPa·s
- viscosity (313.15 K, x1 = 0.768): 3.99 ± 0.04 mPa·s
- viscosity (313.15 K, x1 = 0.88): 5.48 ± 0.05 mPa·s
- viscosity (313.15 K, x1 = 1): 8.07 ± 0.07 mPa·s
- mass density (313.15 K, x1 = 0.075): 814.6 ± 0.7 kg/m3
- mass density (313.15 K, x1 = 0.164): 866.9 ± 0.7 kg/m3
- mass density (313.15 K, x1 = 0.25): 914.8 ± 0.7 kg/m3
- mass density (313.15 K, x1 = 0.353): 969.6 ± 0.7 kg/m3
- mass density (313.15 K, x1 = 0.437): 1012.1 ± 0.7 kg/m3
- mass density (313.15 K, x1 = 0.536): 1060.2 ± 0.6 kg/m3
- mass density (313.15 K, x1 = 0.656): 1115.3 ± 0.6 kg/m3
- mass density (313.15 K, x1 = 0.768): 1163.1 ± 0.6 kg/m3
- mass density (313.15 K, x1 = 0.88): 1210.4 ± 0.7 kg/m3
- mass density (313.15 K, x1 = 1): 1254.1 ± 0.6 kg/m3
- viscosity (323.15 K, x1 = 0.075): 1.01 ± 0.01 mPa·s
- viscosity (323.15 K, x1 = 0.164): 1.08 ± 0.01 mPa·s
- viscosity (323.15 K, x1 = 0.25): 1.2 ± 0.01 mPa·s
- viscosity (323.15 K, x1 = 0.353): 1.41 ± 0.01 mPa·s
- viscosity (323.15 K, x1 = 0.437): 1.62 ± 0.02 mPa·s
- viscosity (323.15 K, x1 = 0.536): 1.95 ± 0.02 mPa·s
- viscosity (323.15 K, x1 = 0.656): 2.5 ± 0.02 mPa·s
- viscosity (323.15 K, x1 = 0.768): 3.27 ± 0.03 mPa·s
- viscosity (323.15 K, x1 = 0.88): 4.45 ± 0.04 mPa·s
- viscosity (323.15 K, x1 = 1): 6.45 ± 0.06 mPa·s
- mass density (323.15 K, x1 = 0.075): 805.3 ± 0.7 kg/m3
- mass density (323.15 K, x1 = 0.164): 857.5 ± 0.7 kg/m3
- mass density (323.15 K, x1 = 0.25): 905.4 ± 0.7 kg/m3
- mass density (323.15 K, x1 = 0.353): 960.4 ± 0.7 kg/m3
- mass density (323.15 K, x1 = 0.437): 1002.9 ± 0.6 kg/m3
- mass density (323.15 K, x1 = 0.536): 1050.9 ± 0.6 kg/m3
- mass density (323.15 K, x1 = 0.656): 1106.2 ± 0.6 kg/m3
- mass density (323.15 K, x1 = 0.768): 1154.1 ± 0.6 kg/m3
- mass density (323.15 K, x1 = 0.88): 1201.6 ± 0.7 kg/m3
- mass density (323.15 K, x1 = 1): 1245.2 ± 0.6 kg/m3
- viscosity (333.15 K, x1 = 0.075): 0.81 ± 0.01 mPa·s
- viscosity (333.15 K, x1 = 0.164): 0.89 ± 0.01 mPa·s
- viscosity (333.15 K, x1 = 0.25): 1 ± 0.01 mPa·s
- viscosity (333.15 K, x1 = 0.353): 1.18 ± 0.01 mPa·s
- viscosity (333.15 K, x1 = 0.437): 1.36 ± 0.01 mPa·s
- viscosity (333.15 K, x1 = 0.536): 1.64 ± 0.02 mPa·s
- viscosity (333.15 K, x1 = 0.656): 2.11 ± 0.02 mPa·s
- viscosity (333.15 K, x1 = 0.768): 2.73 ± 0.02 mPa·s
- viscosity (333.15 K, x1 = 0.88): 3.68 ± 0.03 mPa·s
- viscosity (333.15 K, x1 = 1): 5.22 ± 0.05 mPa·s
- mass density (333.15 K, x1 = 0.075): 795.5 ± 0.7 kg/m3
- mass density (333.15 K, x1 = 0.164): 847.9 ± 0.7 kg/m3
- mass density (333.15 K, x1 = 0.25): 896 ± 0.7 kg/m3
- mass density (333.15 K, x1 = 0.353): 950.7 ± 0.7 kg/m3
- mass density (333.15 K, x1 = 0.437): 993.8 ± 0.7 kg/m3
- mass density (333.15 K, x1 = 0.536): 1041.6 ± 0.6 kg/m3
- mass density (333.15 K, x1 = 0.656): 1097 ± 0.6 kg/m3
- mass density (333.15 K, x1 = 0.768): 1145.1 ± 0.6 kg/m3
- mass density (333.15 K, x1 = 0.88): 1192.6 ± 0.7 kg/m3
- mass density (333.15 K, x1 = 1): 1236.6 ± 0.6 kg/m3
- viscosity (343.15 K, x1 = 0.075): 0.66 ± 0.01 mPa·s
- viscosity (343.15 K, x1 = 0.164): 0.74 ± 0.01 mPa·s
- viscosity (343.15 K, x1 = 0.25): 0.84 ± 0.01 mPa·s
- viscosity (343.15 K, x1 = 0.353): 0.99 ± 0.01 mPa·s
- viscosity (343.15 K, x1 = 0.437): 1.14 ± 0.01 mPa·s
- viscosity (343.15 K, x1 = 0.536): 1.4 ± 0.01 mPa·s
- viscosity (343.15 K, x1 = 0.656): 1.8 ± 0.02 mPa·s
- viscosity (343.15 K, x1 = 0.768): 2.32 ± 0.02 mPa·s
- viscosity (343.15 K, x1 = 0.88): 3.1 ± 0.03 mPa·s
- viscosity (343.15 K, x1 = 1): 4.32 ± 0.04 mPa·s
- mass density (343.15 K, x1 = 0.075): 785.2 ± 0.7 kg/m3
- mass density (343.15 K, x1 = 0.164): 837.9 ± 0.7 kg/m3
- mass density (343.15 K, x1 = 0.25): 886 ± 0.7 kg/m3
- mass density (343.15 K, x1 = 0.353): 941.1 ± 0.7 kg/m3
- mass density (343.15 K, x1 = 0.437): 984.3 ± 0.7 kg/m3
- mass density (343.15 K, x1 = 0.536): 1032.1 ± 0.6 kg/m3
- mass density (343.15 K, x1 = 0.656): 1087.7 ± 0.6 kg/m3
- mass density (343.15 K, x1 = 0.768): 1135.9 ± 0.6 kg/m3
- mass density (343.15 K, x1 = 0.88): 1183.7 ± 0.6 kg/m3
- mass density (343.15 K, x1 = 1): 1228.1 ± 0.6 kg/m3
